# From patent US10004701B2, “Methods and compositions for treating infection” (UNIVERSITY OF ROCHESTER, priority 2012, dated 2018)
# Where a name gives a salt, the structure may show the parent alone. Read-outs that look alike come from different tables or passages of the source.
# What was measured:
# Experiment in all cases: AK assay 384-well format, Prestwick library screening
# E. faecium = format: cell-based, Enterococcus faecium; conditions: for fold induction at 50 µM: Enterococcus faecium, 3 h
# [1] = tested on: S. aureus strain USA300-0114; format: cell-based, Staphylococcus aureus; conditions: for fold induction at 50 µM: Staphylococcus aureus, USA300, 3 h
# K. pneumoniae = format: cell-based, Klebsiella pneumoniae; conditions: for fold induction at 50 µM: Klebsiella pneumoniae, 3 h
# [2] = tested on: A. baumannii strain 98-37-09; format: cell-based, Acinetobacter baumannii; conditions: for fold induction at 50 µM: Acinetobacter baumannii, 983709, 3 h
# P. aeruginosa = format: cell-based, Pseudomonas aeruginosa; conditions: for fold induction at 50 µM: Pseudomonas aeruginosa, 3 h
# E. cloacae = format: cell-based, Enterobacter cloacae; conditions: for fold induction at 50 µM: Enterobacter cloacae, 3 h
# E. coli = format: cell-based, Escherichia coli; conditions: for fold induction at 50 µM: Escherichia coli, 3 h
# [3] = 50 μM final drug concentration, […]
# [4] = 50 μM final drug concentration, planktonic, cutoff for positive 3-fold increase
compound,measurement,setting,value
C[C@]12CC[C@@H](O)C[C@H]1CC[C@@H]1[C@@H]2CC[C@]2(C)C(=O)CC[C@@H]12,"AK-based Prestwick Library Screening Results, E. faecium (fold increase in extracellular AK activity)",E. faecium,1.0
same,"AK-based Prestwick Library Screening Results, S. aureus (fold increase in extracellular AK activity)",[1],1.0
same,"AK-based Prestwick Library Screening Results, K. pneumoniae (fold increase in extracellular AK activity)",K. pneumoniae,0.9
same,"AK-based Prestwick Library Screening Results, A. baumannii (fold increase in extracellular AK activity)",[2],0.9
same,"AK-based Prestwick Library Screening Results, P. aeruginosa (fold increase in extracellular AK activity)",P. aeruginosa,1.1
same,"AK-based Prestwick Library Screening Results, E. cloacae (fold increase in extracellular AK activity)",E. cloacae,1.9
same,"AK-based Prestwick Library Screening Results, E. coli (fold increase in extracellular AK activity)",E. coli,1.2
CCN1C[C@]2(COC)CC[C@H](O)[C@@]34C5C[C@@H]6[C@@H](OC)C[C@](O)(C(CC23)C14)C5[C@H]6OC(C)=O (stereo partly drawn) [Condelphine],fold induction at 50 µM,"E. faecium; planktonic E. faecium, 50 μM final drug concentration, […], read-out: AK-based Prestwick library screening result, E. faecium (fold increase in extracellular AK activity)",1.1
same,fold induction at 50 µM,"[1]; planktonic S. aureus, 50 μM final drug concentration, […], read-out: AK-based Prestwick library screening result, S. aureus (fold increase in extracellular AK activity)",1.1
same,fold induction at 50 µM,"K. pneumoniae; planktonic K. pneumoniae, 50 μM final drug concentration, […], read-out: AK-based Prestwick library screening result, K. pneumoniae (fold increase in extracellular AK activity)",1
same,fold induction at 50 µM,"[2]; planktonic A. baumannii, 50 μM final drug concentration, […], read-out: AK-based Prestwick library screening result, A. baumannii (fold increase in extracellular AK activity)",1.1
same,fold induction at 50 µM,"P. aeruginosa; planktonic P. aeruginosa, 50 μM final drug concentration, […], read-out: AK-based Prestwick library screening result, P. aeruginosa (fold increase in extracellular AK activity)",1
same,fold induction at 50 µM,"E. cloacae; planktonic E. cloacae, 50 μM final drug concentration, […], read-out: AK-based Prestwick library screening result, E. cloacae (fold increase in extracellular AK activity)",1.2
same,fold induction at 50 µM,"E. coli; planktonic E. coli, 50 μM final drug concentration, […], read-out: AK-based Prestwick library screening result, E. coli (fold increase in extracellular AK activity)",1.1
CC(=O)[C@H]1CC[C@H]2[C@@H]3CCC4=CC(=O)CC[C@]4(C)[C@H]3CC[C@]12C [Progesterone],fold induction at 50 µM,"E. faecium; 50 μM final drug concentration, planktonic, cutoff for positive 3-fold increase, read-out: AK-based Prestwick Library Screening Results, E. faecium (fold increase in extracellular AK activity)",1.1
same,fold induction at 50 µM,"[1]; 50 μM final drug concentration, planktonic, cutoff for positive 3-fold increase, read-out: AK-based Prestwick Library Screening Results, S. aureus (fold increase in extracellular AK activity)",1.1
same,fold induction at 50 µM,"K. pneumoniae; 50 μM final drug concentration, planktonic, cutoff for positive 3-fold increase, read-out: AK-based Prestwick Library Screening Results, K. pneumoniae (fold increase in extracellular AK activity)",1.1
same,fold induction at 50 µM,"[2]; 50 μM final drug concentration, planktonic, cutoff for positive 3-fold increase, read-out: AK-based Prestwick Library Screening Results, A. baumannii (fold increase in extracellular AK activity)",1.1
same,fold induction at 50 µM,"P. aeruginosa; 50 μM final drug concentration, planktonic, cutoff for positive 3-fold increase, read-out: AK-based Prestwick Library Screening Results, P. aeruginosa (fold increase in extracellular AK activity)",1
same,fold induction at 50 µM,"E. cloacae; 50 μM final drug concentration, planktonic, cutoff for positive 3-fold increase, read-out: AK-based Prestwick Library Screening Results, E. cloacae (fold increase in extracellular AK activity)",1.7
same,fold induction at 50 µM,"E. coli; 50 μM final drug concentration, planktonic, cutoff for positive 3-fold increase, read-out: AK-based Prestwick Library Screening Results, E. coli (fold increase in extracellular AK activity)",1
CCS(=O)(=O)CCn1c([N+](=O)[O-])cnc1C [Tinidazole],fold induction at 50 µM,"E. faecium; 50 μM final drug concentration, planktonic, cutoff for positive-scoring molecules 3-fold increase, read-out: AK-based Prestwick Library Screening Results, E. faecium (fold increase in extracellular AK activity)",0.9
same,fold induction at 50 µM,"[1]; 50 μM final drug concentration, planktonic, cutoff for positive-scoring molecules 3-fold increase, read-out: AK-based Prestwick Library Screening Results, S. aureus (fold increase in extracellular AK activity)",1.2
same,fold induction at 50 µM,"K. pneumoniae; 50 μM final drug concentration, planktonic, cutoff for positive-scoring molecules 3-fold increase, read-out: AK-based Prestwick Library Screening Results, K. pneumoniae (fold increase in extracellular AK activity)",0.8
same,fold induction at 50 µM,"[2]; 50 μM final drug concentration, planktonic, cutoff for positive-scoring molecules 3-fold increase, read-out: AK-based Prestwick Library Screening Results, A. baumannii (fold increase in extracellular AK activity)",1
same,fold induction at 50 µM,"P. aeruginosa; 50 μM final drug concentration, planktonic, cutoff for positive-scoring molecules 3-fold increase, read-out: AK-based Prestwick Library Screening Results, P. aeruginosa (fold increase in extracellular AK activity)",1.1
same,fold induction at 50 µM,"E. cloacae; 50 μM final drug concentration, planktonic, cutoff for positive-scoring molecules 3-fold increase, read-out: AK-based Prestwick Library Screening Results, E. cloacae (fold increase in extracellular AK activity)",1.5
same,fold induction at 50 µM,"E. coli; 50 μM final drug concentration, planktonic, cutoff for positive-scoring molecules 3-fold increase, read-out: AK-based Prestwick Library Screening Results, E. coli (fold increase in extracellular AK activity)",1.2
NNCCc1ccccc1 [Phenelzine sulfate],fold induction at 50 µM,"E. faecium; 50 μM final drug concentration, 384-well format, cutoff for positive-scoring molecules 3-fold increase, read-out: AK-based Prestwick Library Screening Results, E. faecium (increase in extracellular AK activity)",0.8
same,fold induction at 50 µM,"[1]; 50 μM final drug concentration, 384-well format, cutoff for positive-scoring molecules 3-fold increase, read-out: AK-based Prestwick Library Screening Results, S. aureus (increase in extracellular AK activity)",0.5
same,fold induction at 50 µM,"K. pneumoniae; 50 μM final drug concentration, 384-well format, cutoff for positive-scoring molecules 3-fold increase, read-out: AK-based Prestwick Library Screening Results, K. pneumoniae (increase in extracellular AK activity)",0.6
same,fold induction at 50 µM,"[2]; 50 μM final drug concentration, 384-well format, cutoff for positive-scoring molecules 3-fold increase, read-out: AK-based Prestwick Library Screening Results, A. baumannii (increase in extracellular AK activity)",0.5
same,fold induction at 50 µM,"P. aeruginosa; 50 μM final drug concentration, 384-well format, cutoff for positive-scoring molecules 3-fold increase, read-out: AK-based Prestwick Library Screening Results, P. aeruginosa (increase in extracellular AK activity)",0.5
same,fold induction at 50 µM,"E. cloacae; 50 μM final drug concentration, 384-well format, cutoff for positive-scoring molecules 3-fold increase, read-out: AK-based Prestwick Library Screening Results, E. cloacae (increase in extracellular AK activity)",0.5
same,fold induction at 50 µM,"E. coli; 50 μM final drug concentration, 384-well format, cutoff for positive-scoring molecules 3-fold increase, read-out: AK-based Prestwick Library Screening Results, E. coli (increase in extracellular AK activity)",0.5
C=C1[C@H]2C[C@@]3([C@@H]1O)[C@@H](C[C@@H]2O)[C@]12[C@@H]4C[C@H]3[C@H]1N(CC)C[C@]4(C)CC[C@@H]2O [Napelline],"AK-based Prestwick Library Screening Results, E. faecium (fold increase in extracellular AK activity)",E. faecium; [3],1.0
same,"AK-based Prestwick Library Screening Results, S. aureus (fold increase in extracellular AK activity)",[1]; [3],1.4
same,"AK-based Prestwick Library Screening Results, K. pneumoniae (fold increase in extracellular AK activity)",K. pneumoniae; [3],1.0
same,"AK-based Prestwick Library Screening Results, A. baumannii (fold increase in extracellular AK activity)",[2]; [3],1.0
same,"AK-based Prestwick Library Screening Results, P. aeruginosa (fold increase in extracellular AK activity)",P. aeruginosa; [3],1.1
same,"AK-based Prestwick Library Screening Results, E. cloacae (fold increase in extracellular AK activity)",E. cloacae; [3],3.6
same,"AK-based Prestwick Library Screening Results, E. coli (fold increase in extracellular AK activity)",E. coli; [3],1.3
Cc1cc(C2CCCCC2)n(O)c(=O)c1.NCCO [Ciclopirox ethanolamine],"AK-based Prestwick Library Screening Results, E. faecium (fold increase in extracellular AK activity)",E. faecium; [4],1.6
same,"AK-based Prestwick Library Screening Results, S. aureus (fold increase in extracellular AK activity)",[1]; [4],0.7
same,"AK-based Prestwick Library Screening Results, K. pneumoniae (fold increase in extracellular AK activity)",K. pneumoniae; [4],0.9
same,"AK-based Prestwick Library Screening Results, A. baumannii (fold increase in extracellular AK activity)",[2]; [4],1.2
same,"AK-based Prestwick Library Screening Results, P. aeruginosa (fold increase in extracellular AK activity)",P. aeruginosa; [4],1.0
same,"AK-based Prestwick Library Screening Results, E. cloacae (fold increase in extracellular AK activity)",E. cloacae; [4],1.2
same,"AK-based Prestwick Library Screening Results, E. coli (fold increase in extracellular AK activity)",E. coli; [4],1.1
CCN(CC)CCOC(=O)C1(c2ccc([N+](=O)[O-])cc2)CCCC1.Cl [Nitrocaramiphen hydrochloride],"AK-based Prestwick library screening result, E. faecium (fold increase in extracellular AK activity)","E. faecium; planktonic E. faecium, 50 μM final drug concentration, […]",0.9
same,"AK-based Prestwick library screening result, S. aureus (fold increase in extracellular AK activity)","[1]; planktonic S. aureus, 50 μM final drug concentration, […]",0.6
same,"AK-based Prestwick library screening result, K. pneumoniae (fold increase in extracellular AK activity)","K. pneumoniae; planktonic K. pneumoniae, 50 μM final drug concentration, […]",0.7
same,"AK-based Prestwick library screening result, A. baumannii (fold increase in extracellular AK activity)","[2]; planktonic A. baumannii, 50 μM final drug concentration, […]",0.7
same,"AK-based Prestwick library screening result, P. aeruginosa (fold increase in extracellular AK activity)","P. aeruginosa; planktonic P. aeruginosa, 50 μM final drug concentration, […]",0.8
same,"AK-based Prestwick library screening result, E. cloacae (fold increase in extracellular AK activity)","E. cloacae; planktonic E. cloacae, 50 μM final drug concentration, […]",1.2
same,"AK-based Prestwick library screening result, E. coli (fold increase in extracellular AK activity)","E. coli; planktonic E. coli, 50 μM final drug concentration, […]",0.9
COc1ccc2c(c1)[nH]c1c(C)nccc12 [Harmine hydrochloride],fold induction at 50 µM,"E. faecium; 50 μM final drug concentration, planktonic, […], read-out: AK-based Prestwick Library Screening Results, E. faecium (fold increase in extracellular AK activity)",1.1
same,fold induction at 50 µM,"[1]; 50 μM final drug concentration, planktonic, […], read-out: AK-based Prestwick Library Screening Results, S. aureus (fold increase in extracellular AK activity)",0.9
same,fold induction at 50 µM,"K. pneumoniae; 50 μM final drug concentration, planktonic, […], read-out: AK-based Prestwick Library Screening Results, K. pneumoniae (fold increase in extracellular AK activity)",0.7
same,fold induction at 50 µM,"[2]; 50 μM final drug concentration, planktonic, […], read-out: AK-based Prestwick Library Screening Results, A. baumannii (fold increase in extracellular AK activity)",1
same,fold induction at 50 µM,"P. aeruginosa; 50 μM final drug concentration, planktonic, […], read-out: AK-based Prestwick Library Screening Results, P. aeruginosa (fold increase in extracellular AK activity)",1.2
same,fold induction at 50 µM,"E. cloacae; 50 μM final drug concentration, planktonic, […], read-out: AK-based Prestwick Library Screening Results, E. cloacae (fold increase in extracellular AK activity)",1.5
same,fold induction at 50 µM,"E. coli; 50 μM final drug concentration, planktonic, […], read-out: AK-based Prestwick Library Screening Results, E. coli (fold increase in extracellular AK activity)",1.1
